Test results from patent US11555175B2, “Cell culture methods and media comprising N-acetylcysteine” (Medimmune, LLC, priority 2014, dated 2023).

Experiments:
Format in all cases: cell-based
[1] = tested on: NS0 Cell Line 1 (expressing an anti-IL-9 antibody); assay: Cell doubling time of NS0 Cell Line 1 at vial thaw with NAC-supplemented medium; details: for average cell doubling time at vial thaw: control medium 57.6 hours; for cell doubling time at vial thaw: control medium 109.8 hours
Excerpt: (§1) To investigate the role of N-Acetylcysteine on thaw recovery, cell viability, cell growth and cell doubling time on subsequent passaging, the following methods were used. Three different NS0 cell lines cultured in one to three different Animal Protein Free (“APF”) media were investigated to study the effect of N-acetylcysteine (NAC) on cell growth at vial thaw and during routine cell expansion. One of the cell lines was a NS0 null host cell that had not been transformed to express a recombinant protein (NS0 Null Cell Line). The other two NS0 cell lines were engineered to express a therapeutic recombinant protein: NS0 Cell Line 1 (expressing an anti-IL-9 antibody) and NS0 Cell Line 2 (expressing BAK502G9, an anti-IL-13 antibody). NS0 Cell Line 1 was thawed and expanded in two different APF media (APF Medium 1 or APF Medium 2) supplemented with various concentrations of NAC ranging from 1.5 mM to 2.5 mM. NS0 Cell Line 2 was thawed and expanded in three different APF media (APF Medium 1, APF Medium 2 or a commercially available NS0 cell culture media (CD Hybridoma+cholesterol from Invitrogen/Gibco)) supplemented with NAC ranging from 0.5 mM to 2.5 mM, while the untransformed host cell line (NS0 Null Cell Line) was thawed in APF medium 2 supplemented with NAC ranging from 0.5 mM to 1.5 mM. NAC was obtained from Sigma and was either added to the medium directly or dissolved in water at 100 mM concentration before adding to the media at the appropriate concentration. All three media (APF Medium 1, APF Medium 2, and CD Hybridoma+cholesterol from Invitrogen/Gibco) supported growth of NS0 cells, as illustrated in FIGS. 1-12. APF Medium 1 and APF Medium 2 contain standard cell culture components including: amino acids, vitamins, lipids, sugar, small peptides, pH buffer, trace metals, inorganic salts, nucleotides, nucleotide precursors, surfactants, reducing agents, cholesterol, lipids and antioxidants.
(§2) Prior to vial thaw, media were temperature and pH equilibrated for a minimum of 1 hour in a 6% CO2 incubator at 37° C. with agitation at 120 rpm on a shaker. Vials were thawed using a 37° C. water bath and the entire contents were transferred equilibrated media. A cell count using Beckman Vi-Cell (an image-based cell viability analyzer) was obtained to measure the viable cell density and viability.
(§3) Viable cell densities during the first 3 to 4 days (i.e. exponential growth phase) at each passage were used to calculate population doubling times during both the first few days after the vial thaw while the cells were recovering from the thaw and during subsequent cell passages when the cells have fully recovered and reached a consistent doubling time from passage to passage.
NS0 cells (i.e. NS0 Cell Line 1) expressing an anti-IL-9 monoclonal antibody were in a frozen stock. Frozen NS0 Cell Line 1 cells were thawed in animal-protein free (APF) medium (i.e. APF media 1 or APF media 2) supplemented with various concentrations of N-acetylcysteine (NAC) and viable cell density during exponential growth phase was used to calculate average cell doubling time as described above.

[2] = tested on: NS0 Cell Line 2 (expressing BAK502G9, an anti-IL-13 antibody); assay: Cell doubling time of NS0 Cell Line 2 at vial thaw with NAC-supplemented medium
Excerpt: as §1, §2, §3
NS0 cells (i.e. NS0 Cell Line 2) expressing a monoclonal antibody (i.e. BAK502G9, an anti-IL-13 antibody) were in a frozen stock. Frozen NS0 Cell Line 2 cells were thawed in animal-protein free (APF) medium (i.e. APF media 1, APF media 2 or CD Hybridoma medium (Gibco) supplemented with cholesterol (1× Invitrogen Cholesterol Lipid Concentrate)) supplemented with various concentrations of N-acetylcysteine (NAC) and viable cell density during exponential growth phase was used to calculate average cell doubling time as described in Example 1.

NS0 Null Cell Line [3] = assay: Cell doubling time of NS0 Null Cell Line at vial thaw with NAC-supplemented medium; details: for cell doubling time at vial thaw: control medium 67.8 hours
Excerpt: as §1, §2, §3
NS0 cells (i.e. NS0 Null Cell Line) not transfected with a heterologous protein were in a frozen stock. Frozen NS0 Null Cell Line cells were thawed in animal-protein free (APF) medium (i.e. APF media 2) supplemented with various concentrations of N-acetylcysteine (NAC) and viable cell density during exponential growth phase was used to calculate average cell doubling time as described in Example 1.

[4] = tested on: NS0 Cell Line 1 (expressing an anti-IL-9 antibody); assay: Cell doubling time of NS0 Cell Line 1 during cell expansion with NAC-supplemented medium
Excerpt: as §1, §3
NS0 cells (i.e. NS0 Cell Line 1) expressing an anti-IL-9 monoclonal antibody were cultured in animal-protein free (APF) medium (i.e. APF media 1 or APF media 2). The cells used in the vial thaw studies described in Example 1 were split into the same media (APF media 1 or APF media 2 supplemented with various concentrations of N-acetylcysteine) and allowed to recover in subsequent passages until a consistent doubling time from passage to passage was achieved. Viable cell density during exponential growth phase after recovery was used to calculate average cell doubling time as described in Example 1.

[5] = tested on: NS0 Cell Line 2 (expressing BAK502G9, an anti-IL-13 antibody); assay: Cell doubling time of NS0 Cell Line 2 during cell expansion with NAC-supplemented medium
Excerpt: as §1, §3
NS0 cells (i.e. NS0 Cell Line 2) expressing a monoclonal antibody (i.e. BAK502G9, an anti-IL-13 antibody) were cultured in animal-protein free (APF) medium (i.e. APF media 1, APF media 2 or CD Hybridoma medium (Gibco) supplemented with cholesterol (1× Invitrogen Cholesterol Lipid Concentrate)). The cells used in the vial thaw studies described in Example 2 were split into the same media (APF media 1, APF media 2 or CD Hybridoma medium+cholesterol) supplemented with various concentrations of N-acetylcysteine and allowed to recover in subsequent passages until a consistent doubling time from passage to passage was achieved. Viable cell density during exponential growth phase after recovery was used to calculate average cell doubling time as described in Example 1.

NS0 Null Cell Line [6] = assay: Cell doubling time of NS0 Null Cell Line during cell expansion with NAC-supplemented medium; details: for Average Doubling Time: APF Medium 2, during expansion, 0.0 mM control 31.9
Excerpt: as §1, §3
NS0 cells (i.e. NS0 Null Cell Line) not transfected with a heterologous protein were cultured in animal-protein free (APF) medium (i.e. APF media 2). The cells used in the vial thaw studies described in Example 3 were split into the same media (APF media 2 supplemented with various concentrations of N-acetylcysteine) and allowed to recover in subsequent passages until a consistent doubling time from passage to passage was achieved. Viable cell density during exponential growth phase after recovery was used to calculate average cell doubling time as described in Example 1.

[7] = vial thaw, about 1.5 mM to about 2.5 mM NAC, APF media 1 and 2, vs control medium
[8] = vial thaw, about 0.5 mM to about 2.5 mM NAC, three media, vs control medium
[9] = vial thaw, 0.5 mM to 1.5 mM NAC, APF medium 2
[10] = during expansion, about 1.5 mM to about 2.5 mM NAC, APF media 1 and 2
[11] = during expansion, about 0.5 mM to about 2.5 mM NAC, three media

CC(=O)N[C@@H](CS)C(=O)O [NAC, (2R) -2-acetamido-3-sulfanylpropanoic acid]
average cell doubling time at vial thaw ([1]; APF media 1, 1.5 mM NAC): 55.6 h
average cell doubling time at vial thaw ([1]; APF media 1, 2.0 mM NAC): 48.4 h
average cell doubling time at vial thaw ([1]; APF media 1, 2.5 mM NAC): 53.9 h
cell doubling time at vial thaw ([1]; APF media 2, 1.5 mM NAC): 47.5 h
cell doubling time at vial thaw ([1]; APF media 2, 2.0 mM NAC): 56.9 h
cell doubling time at vial thaw ([1]; APF media 2, 2.5 mM NAC): 47.7 h
cell growth [1, 7]: increases
cell viability [1, 7]: increases
average cell doubling time at vial thaw ([2]; APF media 1, 0.5 mM NAC, control medium 44.6 hours): 39.6 h
average cell doubling time at vial thaw ([2]; APF media 1, 1.0 mM NAC, control medium 44.6 hours): 41.6 h
average cell doubling time at vial thaw ([2]; APF media 1, 2.5 mM NAC, control medium 44.6 hours): 37.5 h
average cell doubling time at vial thaw ([2]; APF media 2, 0.5 mM NAC, control medium 77.0 hours): 57.7 h
average cell doubling time at vial thaw ([2]; APF media 2, 1.0 mM NAC, control medium 77.0 hours): 37.0 h
average cell doubling time at vial thaw ([2]; APF media 2, 2.0 mM NAC, control medium 77.0 hours): 39.7 h
average cell doubling time at vial thaw ([2]; CD Hybridoma medium (Gibco) + 1x Cholesterol Lipid Concentrate, 0.5 mM NAC, control medium 35.5 hours): 34.7 h
average cell doubling time at vial thaw ([2]; CD Hybridoma medium (Gibco) + 1x Cholesterol Lipid Concentrate, 1.0 mM NAC, control medium 35.5 hours): 30.6 h
average cell doubling time at vial thaw ([2]; CD Hybridoma medium (Gibco) + 1x Cholesterol Lipid Concentrate, 2.0 mM NAC, control medium 35.5 hours): 30.9 h
cell growth [2, 8]: increases
cell viability [2, 8]: increases
cell doubling time at vial thaw (NS0 Null Cell Line [3]; APF media 2, 0.5 mM NAC): 36.8 h
cell doubling time at vial thaw (NS0 Null Cell Line [3]; APF media 2, 1.0 mM NAC): 38.4 h
cell doubling time at vial thaw (NS0 Null Cell Line [3]; APF media 2, 1.5 mM NAC): 57.9 h
cell growth (NS0 Null Cell Line [3]; [9]): increased
cell viability (NS0 Null Cell Line [3]; [9]): improved
Average Doubling Time ([4]; APF Medium 1, during expansion, 1.5 mM NAC, 0.0 mM control 47.0): 42.3 h
Average Doubling Time ([4]; APF Medium 1, during expansion, 2.0 mM NAC, 0.0 mM control 47.0): 46.1 h
Average Doubling Time ([4]; APF Medium 1, during expansion, 2.5 mM NAC, 0.0 mM control 47.0): 63.6 h
Average Doubling Time ([4]; APF Medium 2, during expansion, 1.5 mM NAC, 0.0 mM control 44.3): 34.8 h
Average Doubling Time ([4]; APF Medium 2, during expansion, 2.0 mM NAC, 0.0 mM control 44.3): 34.6 h
Average Doubling Time ([4]; APF Medium 2, during expansion, 2.5 mM NAC, 0.0 mM control 44.3): 34.8 h
cell growth [4, 10]: increases
cell viability [4, 10]: increases
Average Doubling Time ([5]; APF Medium 1, during expansion, 0.5 mM NAC, 0.0 mM control 41.7): 35.4 h
Average Doubling Time ([5]; APF Medium 1, during expansion, 1.0 mM NAC, 0.0 mM control 41.7): 31.2 h
Average Doubling Time ([5]; APF Medium 1, during expansion, 2.5 mM NAC, 0.0 mM control 41.7): 31.2 h
Average Doubling Time ([5]; APF Medium 2, during expansion, 0.5 mM NAC, 0.0 mM control 38.1): 30.2 h
Average Doubling Time ([5]; APF Medium 2, during expansion, 1.0 mM NAC, 0.0 mM control 38.1): 28.8 h
Average Doubling Time ([5]; APF Medium 2, during expansion, 2.0 mM NAC, 0.0 mM control 38.1): 31.5 h
Average Doubling Time ([5]; Invitrogen CD Hybridoma Medium supplemented with cholesterol, during expansion, 0.5 mM NAC, 0.0 mM control 40.7): 39.7 h
Average Doubling Time ([5]; Invitrogen CD Hybridoma Medium supplemented with cholesterol, during expansion, 1.0 mM NAC, 0.0 mM control 40.7): 37.5 h
Average Doubling Time ([5]; Invitrogen CD Hybridoma Medium supplemented with cholesterol, during expansion, 2.0 mM NAC, 0.0 mM control 40.7): 35.7 h
cell growth [5, 11]: increases
cell viability [5, 11]: increases
Average Doubling Time (NS0 Null Cell Line [6]; 0.5 mM NAC): 26.4 h
Average Doubling Time (NS0 Null Cell Line [6]; 1.0 mM NAC): 26.4 h
Average Doubling Time (NS0 Null Cell Line [6]; 1.5 mM NAC): 26.2 h
cell growth (NS0 Null Cell Line [6]; during expansion, 0.5 mM to 1.5 mM NAC, APF medium 2): increased
cell viability (NS0 Null Cell Line [6]; during expansion, about 0.5 mM to about 2.0 mM NAC, statement covers three NS0 cell lines in three media): increased
